Experimental data from patent US9650395B2, “Antibacterial compounds and methods for use” (PTC Therapeutics, Inc., priority 2011, dated 2017).
In brackets after ≈: the same amount, converted by molar mass. Where two headings read alike, the source gives them in different places.

Assays:
[1] = system: Gram-positive Staphylococcus aureus (S. aureus) 29213; experiment: Antibacterial activity, microbroth dilution MIC, S. aureus 29213; format: cell-based; settings: Staphylococcus aureus; S. aureus 29213, microbroth dilution; read-out: MIC, 29213
[2] = system: Pseudomonas aeruginosa (P. aeruginosa) 27853; experiment: Antibacterial activity, MIC, P. aeruginosa 27853; format: cell-based; settings: P. aeruginosa 27853; for MIC: Pseudomonas aeruginosa, read-out: MIC 27853
From the text: (§1) The antibacterial activity from a microbroth dilution method may be presented as the minimum inhibitory concentration (MIC in […]). The MIC value is the lowest concentration of a drug which prevents macroscopically visible bacterial growth under test conditions.
Antibacterial activity of test compounds against the Gram-negative bacterium Pseudomonas aeruginosa (P. aeruginosa) 27853 is shown in Table 5.

[3] = system: E. coli ELZ4000 (MDR clinical isolate); experiment: Antibacterial activity, MIC, MDR E. coli ELZ4000; format: cell-based, Escherichia coli; settings: Escherichia coli; E. coli ELZ4000, MDR clinical isolate; read-out: MIC ELZ4000
[4] = system: quinolone resistant E. coli LZ3111; experiment: Antibacterial activity, MIC, quinolone resistant E. coli LZ3111; format: cell-based, Escherichia coli; settings: Escherichia coli, read-out: MIC, LZ3111
From the text: as §1
Mutations in these regions are known to confer a high level resistance to the quinolone class of antibiotics.

[5] = system: super sensitive Gram-negative Escherichia coli (E. coli) BAS849; experiment: Antibacterial activity, microbroth dilution MIC, E. coli BAS849; format: cell-based; settings: Escherichia coli, read-out: MIC, BAS849
[6] = system: E. coli ELZ4251 (MDR clinical isolate); experiment: Antibacterial activity, MIC, MDR E. coli ELZ4251; format: cell-based, Escherichia coli; settings: E. coli ELZ4251, MDR clinical isolate
[7] = system: Acinetobacter baumannii (A. baumannii) BAA747; experiment: Antibacterial activity, MIC, A. baumannii BAA747; format: cell-based; settings: Acinetobacter baumannii; A. baumannii BAA747; read-out: MIC BAA747
[8] = system: control Gram-negative E. coli 25922 strain; experiment: Antibacterial activity, microbroth dilution MIC, E. coli 25922; format: cell-based, Escherichia coli; settings: Escherichia coli; E. coli 25922, microbroth dilution; read-out: MIC, 25922
[9] = system: Klebsiella pneumoniae (K. pneumoniae) 35657; experiment: Antibacterial activity, MIC, K. pneumoniae 35657; format: cell-based; settings: for MIC: Klebsiella pneumoniae
[10] = system: Moraxella catarrhalis (M. catarrhalis) 25238; experiment: Antibacterial activity, MIC, M. catarrhalis 25238; format: cell-based; settings: Moraxella catarrhalis, M. catarrhalis 25238; read-out: MIC 25238
[11] = system: Haemophilus influenzae (H. influenzae) 49247; experiment: Antibacterial activity, MIC, H. influenzae 49247; format: cell-based; settings: Haemophilus influenzae; H. influenzae 49247; read-out: MIC 49247
How it was run: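 Antibacterial activity against the Gram-negative organism Haemophilus influenzae strain 49247 was measured by microbroth dilution. The minimum inhibitory concentration (MIC) was taken as the lowest drug concentration that stopped bacterial growth from being visible to the naked eye under the test conditions.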

[12] = system: resistant A. baumannii MXX2240 (MDR clinical isolate); experiment: Antibacterial activity, MIC, resistant A. baumannii MXX2240; format: cell-based, Acinetobacter baumannii; settings: resistant A. baumannii MMX2240, MDR clinical isolate
[13] = system: Neisseria meningitidis (N. meningitidis) 13090; experiment: Antibacterial activity, MIC, N. meningitidis 13090; format: cell-based; settings: Neisseria meningitidis; N. meningitidis 13090; read-out: MIC 13090
[14] = E. coli BAS849, microbroth dilution

| SMILES | MIC [1] | MIC [2] | MIC [3] | MIC [4] | MIC [5, 14] | MIC ([6]; Escherichia coli, read-out: MIC ELZ4251) | MIC [7] | MIC [8] | MIC [9] | MIC [5] | MIC 27853 [2] | MIC [10] | MIC [11] | MIC ELZ4251 [6] | MIC MMX2240 [12] | MIC [13] | MIC 35657 [9] |
| --- | --- | --- | --- | --- | --- | --- | --- | --- | --- | --- | --- | --- | --- | --- | --- | --- | --- |
| CCc1c(-c2ccc(N3C[C@H]4CCCC[C@@]4(CN(C)C)C3)cc2)[nH]c(=O)c(C(=O)O)c1O.Cl [Cpd 266, 6-(4-{(3aR,7aS)-3a-[(dimethylamino)methyl]octahydro-2H-isoindol-2-yl}phenyl)-5-ethyl-4-hydroxy-2-oxo-1,2-dihydropyridine-3-carboxylic acid hydrochloride] | 3.5 to 12.5 µg/mL | 12.5 to 150 µg/mL | 12.5 to 150 µg/mL | 3.5 to 12.5 µg/mL | 1 to 3.5 µg/mL | 12.5 to 150 µg/mL | 12.5 to 150 µg/mL | 12.5 to 150 µg/mL | 12.5 to 150 µg/mL | – | – | – | – | – | – | – | – |
| CCc1c(-c2ccc(N3C[C@H]4CC[C@H](NC)[C@H]4C3)cc2)[nH]c(=O)c(C(=O)O)c1O.Cl [Cpd 267, 5-ethyl-4-hydroxy-6-{4-[(3aR,4S,6aS)-4-(methylamino)hexahydrocyclopenta[c]pyrrol-2(1H)-yl]phenyl}-2-oxo-1,2-dihydropyridine-3-carboxylic acid hydrochloride] | 12.5 to 150 µg/mL | 12.5 to 150 µg/mL | – | 3.5 to 12.5 µg/mL | 1 to 3.5 µg/mL | – | 12.5 to 150 µg/mL | 3.5 to 12.5 µg/mL | 3.5 to 12.5 µg/mL | – | – | – | – | – | – | – | – |
| CCc1c(-c2ccc(N3CC4CCCCC4(C#N)C3)cc2)[nH]c(=O)c(C(=O)O)c1O.O=C(O)C(F)(F)F (stereo not drawn) [Cpd 276, 6-[4-(3a-cyanooctahydro-2H-isoindol-2-yl)phenyl]-5-ethyl-4-hydroxy-2-oxo-1,2-dihydropyridine-3-carboxylic acid trifluoroacetate] | 1 to 3.5 µg/mL | 12.5 to 150 µg/mL | – | 12.5 to 150 µg/mL | – | – | 12.5 to 150 µg/mL | 12.5 to 150 µg/mL | 12.5 to 150 µg/mL | < 1 µg/mL | – | – | – | – | – | – | – |
| CCc1c(-c2ccc(N3C[C@@H]4[C@@H](N)[C@@H]4C3)cc2)[nH]c(=O)c(C(=O)O)c1O [Cpd 285, 6-{4-[(1R,5S,6s)-6-amino-3-azabicyclo[3.1.0]hex-3-yl]phenyl}-5-ethyl-4-hydroxy-2-oxo-1,2-dihydropyridine-3-carboxylic acid] | – | – | 12.5 to 150 µg/mL (≈ 35.2 to 422 µM) | – | – | – | – | – | – | – | ** (an MIC value between >3.5 μg/mL and ≦12.5 μg/mL is indicated by two stars (**)) | 1 to 3.5 µg/mL (≈ 2.81 to 9.85 µM) | < 1 µg/mL | ** (an MIC value between >3.5 μg/mL and ≦12.5 μg/mL is indicated by two stars (**)) | * (an MIC value between >12.5 μg/mL and ≦150 μg/mL is indicated by a single star (*)) | < 1 µg/mL | *** (an MIC value between >1.0 μg/mL and ≦3.5 μg/mL is indicated by three stars (***)) |
| CCc1c(-c2ccc(N3CC[C@@H](O)C3)cc2F)[nH]c(=O)c(C(=O)O)c1O [Cpd 292, 5-ethyl-6-{2-fluoro-4-[(3R)-3-hydroxypyrrolidin-1-yl]phenyl}-4-hydroxy-2-oxo-1,2-dihydropyridine-3-carboxylic acid] | 12.5 to 150 µg/mL (≈ 34.5 to 414 µM) | 3.5 to 12.5 µg/mL (≈ 9.66 to 34.5 µM) | – | 12.5 to 150 µg/mL (≈ 34.5 to 414 µM) | < 1 µg/mL | – | 3.5 to 12.5 µg/mL (≈ 9.66 to 34.5 µM) | 1 to 3.5 µg/mL (≈ 2.76 to 9.66 µM) | 1 to 3.5 µg/mL (≈ 2.76 to 9.66 µM) | – | – | – | – | – | – | – | – |
| CCc1c(-c2ccc(N3CC[C@@H](F)C3)cc2F)[nH]c(=O)c(C(=O)O)c1O [Cpd 293, 5-ethyl-6-{2-fluoro-4-[(3R)-3-fluoropyrrolidin-1-yl]phenyl}-4-hydroxy-2-oxo-1,2-dihydropyridine-3-carboxylic acid] | 3.5 to 12.5 µg/mL (≈ 9.61 to 34.3 µM) | 12.5 to 150 µg/mL (≈ 34.3 to 412 µM) | – | 12.5 to 150 µg/mL (≈ 34.3 to 412 µM) | < 1 µg/mL | – | 12.5 to 150 µg/mL (≈ 34.3 to 412 µM) | 3.5 to 12.5 µg/mL (≈ 9.61 to 34.3 µM) | 12.5 to 150 µg/mL (≈ 34.3 to 412 µM) | – | – | – | – | – | – | – | – |
